Source: US9359358B2, “Cyclohexyl azetidine derivatives as JAK inhibitors” (Incyte Holdings Corporation, priority 2011, dated 2016)
Counter-ions that a name gives are not always drawn.

Assays:
[1] = target: T1, human JAK1 (Homo sapiens, UniProt P23458); test: In Vitro JAK Kinase Assay (HTRF, phosphorylation of a biotinylated peptide), JAK1; type: biochemical; details: catalytic domain a.a. 837-1142, assay of Example A
T1 construct: human JAK1 (a.a. 837-1142); His tag (N); made in house; host or cells: insect cells (baculovirus)
Protocol: (§1) The catalytic activity of JAK1, JAK2 or JAK3 was assayed by measuring the phosphorylation of a biotinylated peptide. The phosphorylated peptide was detected by homogenous time resolved fluorescence (HTRF). […] Reactions were carried out at room temperature for 1 hour and then stopped with 20 μL 45 mM EDTA, 300 nM SA-APC, 6 nM Eu-Py20 in assay buffer (Perkin Elmer, Boston, Mass.). Binding to the Europium labeled antibody took place for 40 minutes and HTRF signal was measured on a Fusion plate reader (Perkin Elmer, Boston, Mass.).

[2] = target: T2, human JAK2 (Homo sapiens, UniProt O60674); test: In Vitro JAK Kinase Assay (HTRF, phosphorylation of a biotinylated peptide), JAK2; type: biochemical; details: assay of Example A
T2 construct: JAK2 (a.a. 828-1132); His tag (N); made in house; host or cells: insect cells (baculovirus)
Protocol: as §1

T1 sequence (P23458 849-1154): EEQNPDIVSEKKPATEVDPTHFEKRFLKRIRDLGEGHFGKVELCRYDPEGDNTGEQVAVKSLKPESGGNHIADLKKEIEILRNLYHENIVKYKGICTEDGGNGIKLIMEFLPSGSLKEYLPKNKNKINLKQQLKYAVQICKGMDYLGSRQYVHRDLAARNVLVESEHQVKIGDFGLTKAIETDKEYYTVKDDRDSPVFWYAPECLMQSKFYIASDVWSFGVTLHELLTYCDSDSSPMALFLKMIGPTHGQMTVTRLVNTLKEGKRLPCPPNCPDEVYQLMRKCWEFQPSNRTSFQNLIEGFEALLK
T2 sequence (O60674 828-1132): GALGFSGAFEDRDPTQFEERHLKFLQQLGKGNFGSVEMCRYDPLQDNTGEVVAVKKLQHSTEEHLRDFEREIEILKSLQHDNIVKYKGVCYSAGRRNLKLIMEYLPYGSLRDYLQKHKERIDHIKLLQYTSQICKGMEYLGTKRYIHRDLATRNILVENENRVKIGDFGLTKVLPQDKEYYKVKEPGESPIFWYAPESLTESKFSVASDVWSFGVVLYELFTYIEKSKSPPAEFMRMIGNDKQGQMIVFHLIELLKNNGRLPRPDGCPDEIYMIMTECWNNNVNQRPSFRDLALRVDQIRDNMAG

N#CCC1(n2cc(-c3ncnc4[nH]ccc34)cn2)CN([C@H]2CC[C@@H](Oc3cc(C(=O)NC4CCC4)cc(C(F)(F)F)n3)CC2)C1 [Example 90, 2-[(cis-4-{3-(cyanomethyl)-3-[4-(7H-pyrrolo[2,3-d]pyrimidin-4-yl)-1H-pyrazol-1-yl]azetidin-1-yl}cyclohexyl)oxy]-N-cyclobutyl-6-(trifluoromethyl)isonicotinamide bis(trifluoroacetate)]
IC50 ([1]; Table 5): < 10 nM
JAK2/JAK1 IC50 ratio ([2]; Table 5): ≧10

CC(C)(O)c1cc(O[C@H]2CC[C@@H](N3CC(CC#N)(n4cc(-c5ncnc6[nH]ccc56)cn4)C3)CC2)nc(C(F)(F)F)n1 [Example 43, {1-(cis-4-{[6-(1-Hydroxy-1-methylethyl)-2-(trifluoromethyl)pyrimidin-4-yl]oxy}cyclohexyl)-3-[4-(7H-pyrrolo[2,3-d]pyrimidin-4-yl)-1H-pyrazol-1-yl]azetidin-3-yl}acetonitrile bis(trifluoroacetate)]
IC50 ([1]; Table 4): < 10 nM
JAK2/JAK1 IC50 ratio ([2]; Table 4): ≧10

CC1(NCc2cc(O[C@H]3CC[C@@H](N4CC(CC#N)(n5cc(-c6ncnc7[nH]ccc67)cn5)C4)CC3)nc(C(F)(F)F)c2)COC1 [Example 98, {1-(cis-4-{[4-{[(3-methyloxetan-3-yl)amino]methyl}-6-(trifluoromethyl)pyridin-2-yl]oxy}cyclohexyl)-3-[4-(7H-pyrrolo[2,3-d]pyrimidin-4-yl)-1H-pyrazol-1-yl]azetidin-3-yl}acetonitrile tetrakis(trifluoroacetate)]
IC50 ([1]; Table 5): < 10 nM
JAK2/JAK1 IC50 ratio ([2]; Table 5): ≧10

N#CCC1(n2cc(-c3ncnc4[nH]ccc34)cn2)CN([C@H]2CC[C@@H](Oc3cc(CNCC(O)CO)nc(C(F)(F)F)n3)CC2)C1 (stereo partly drawn) [Example 33, {1-(cis-4-{[6-{[(2,3-dihydroxypropyl)amino]methyl}-2-(trifluoromethyl)pyrimidin-4-yl]oxy}cyclohexyl)-3-[4-(7H-pyrrolo[2,3-d]pyrimidin-4-yl)-1H-pyrazol-1-yl]azetidin-3-yl}acetonitrile tris(trifluoroacetate) (salt)]
IC50 ([1]; Table 4): < 10 nM
JAK2/JAK1 IC50 ratio ([2]; Table 4): ≧10

N#CCC1(n2cc(-c3ncnc4[nH]ccc34)cn2)CN([C@H]2CC[C@@H](Oc3cc(OCCO)nc(C(F)(F)F)n3)CC2)C1 [Example 56, {1-(cis-4-{[6-(2-hydroxyethoxy)-2-(trifluoromethyl)pyrimidin-4-yl]oxy}cyclohexyl)-3-[4-(7H-pyrrolo[2,3-d]pyrimidin-4-yl)-1H-pyrazol-1-yl]azetidin-3-yl}acetonitrile bis(trifluoroacetate) (salt)]
IC50 ([1]; Table 4): < 10 nM
JAK2/JAK1 IC50 ratio ([2]; Table 4): ≧10

N#CCC1(n2cc(-c3ncnc4[nH]ccc34)cn2)CN([C@H]2CC[C@@H](Oc3cc(CN4CC[C@H](O)C4)cc(C(F)(F)F)n3)CC2)C1 [Example 96, {1-(cis-4-{[4-{[(3S)-3-hydroxypyrrolidin-1-yl]methyl}-6-(trifluoromethyl)pyridin-2-yl]oxy}cyclohexyl)-3-[4-(7H-pyrrolo[2,3-d]pyrimidin-4-yl)-1H-pyrazol-1-yl]azetidin-3-yl}acetonitrile tris(trifluoroacetate)]
IC50 ([1]; Table 5): < 10 nM
JAK2/JAK1 IC50 ratio ([2]; Table 5): ≧10

COCCN(C)Cc1cc(O[C@H]2CC[C@@H](N3CC(CC#N)(n4cc(-c5ncnc6[nH]ccc56)cn4)C3)CC2)nc(C(F)(F)F)n1.O=C(O)C(F)(F)F.O=C(O)C(F)(F)F.O=C(O)C(F)(F)F [Example 42, {1-(cis-4-{[6-{[(2-methoxyethyl)(methyl)amino]methyl}-2-(trifluoromethyl)pyrimidin-4-yl]oxy}cyclohexyl)-3-[4-(7H-pyrrolo[2,3-d]pyrimidin-4-yl)-1H-pyrazol-1-yl]azetidin-3-yl}acetonitrile tris(trifluoroacetate)]
IC50 ([1]; Table 4): < 10 nM
JAK2/JAK1 IC50 ratio ([2]; Table 4): ≧10

CCCCN(C)Cc1cc(O[C@H]2CC[C@@H](N3CC(CC#N)(n4cc(-c5ncnc6[nH]ccc56)cn4)C3)CC2)nc(C(F)(F)F)n1.O=C(O)C(F)(F)F.O=C(O)C(F)(F)F.O=C(O)C(F)(F)F [Example 36, {1-(cis-4-{[6-{[butyl(methyl)amino]methyl}-2-(trifluoromethyl)pyrimidin-4-yl]oxy}cyclohexyl)-3-[4-(7H-pyrrolo[2,3-d]pyrimidin-4-yl)-1H-pyrazol-1-yl]azetidin-3-yl}acetonitrile tris(trifluoroacetate)]
IC50 ([1]; Table 4): < 10 nM
JAK2/JAK1 IC50 ratio ([2]; Table 4): ≧10

C[C@@H](CO)NCc1cc(O[C@H]2CC[C@@H](N3CC(CC#N)(n4cc(-c5ncnc6[nH]ccc56)cn4)C3)CC2)nc(C(F)(F)F)c1 [Example 73, {1-(cis-4-{[4-({[(1S)-2-hydroxy-1-methylethyl]amino}methyl)-6-(trifluoromethyl)pyridin-2-yl]oxy}cyclohexyl)-3-[4-(7H-pyrrolo[2,3-d]pyrimidin-4-yl)-1H-pyrazol-1-yl]azetidin-3-yl}acetonitrile tris(trifluoroacetate)]
IC50 ([1]; Table 5): < 10 nM
JAK2/JAK1 IC50 ratio ([2]; Table 5): ≧10

CCN(CCO)Cc1cc(O[C@H]2CC[C@@H](N3CC(CC#N)(n4cc(-c5ncnc6[nH]ccc56)cn4)C3)CC2)nc(C(F)(F)F)n1 [Example 13, {1-(cis-4-{[6-{[ethyl(2-hydroxyethyl)amino]methyl}-2-(trifluoromethyl)pyrimidin-4-yl]oxy}cyclohexyl)-3-[4-(7H-pyrrolo[2,3-d]pyrimidin-4-yl)-1H-pyrazol-1-yl]azetidin-3-yl}acetonitrile tris(trifluoroacetate) (salt)]
IC50 ([1]; Table 4): < 10 nM
JAK2/JAK1 IC50 ratio ([2]; Table 4): ≧10

CC1(NCc2cc(O[C@H]3CC[C@@H](N4CC(CC#N)(n5cc(-c6ncnc7[nH]ccc67)cn5)C4)CC3)nc(C(F)(F)F)n2)CC1.O=C(O)C(F)(F)F.O=C(O)C(F)(F)F.O=C(O)C(F)(F)F [Example 53, {1-(cis-4-{[6-{[(1-methylcyclopropyl)amino]methyl}-2-(trifluoromethyl)pyrimidin-4-yl]oxy}cyclohexyl)-3-[4-(7H-pyrrolo[2,3-d]pyrimidin-4-yl)-1H-pyrazol-1-yl]azetidin-3-yl}acetonitrile tris(trifluoroacetate)]
IC50 ([1]; Table 4): < 10 nM
JAK2/JAK1 IC50 ratio ([2]; Table 4): ≧10

N#CCC1(n2cc(-c3ncnc4[nH]ccc34)cn2)CN([C@H]2CC[C@@H](Oc3cc(CN4CC(O)C4)nc(C(F)(F)F)n3)CC2)C1 [Example 24, {1-(cis-4-{[6-[(3-hydroxyazetidin-1-yl)methyl]-2-(trifluoromethyl)pyrimidin-4-yl]oxy}cyclohexyl)-3-[4-(7H-pyrrolo[2,3-d]pyrimidin-4-yl)-1H-pyrazol-1-yl]azetidin-3-yl}acetonitrile tris(trifluoroacetate) (salt)]
IC50 ([1]; Table 4): < 10 nM
JAK2/JAK1 IC50 ratio ([2]; Table 4): ≧10

COCCCNCc1cc(O[C@H]2CC[C@@H](N3CC(CC#N)(n4cc(-c5ncnc6[nH]ccc56)cn4)C3)CC2)nc(C(F)(F)F)n1 [Example 40, {1-(cis-4-{[6-{[(3-methoxypropyl)amino]methyl}-2-(trifluoromethyl)pyrimidin-4-yl]oxy}cyclohexyl)-3-[4-(7H-pyrrolo[2,3-d]pyrimidin-4-yl)-1H-pyrazol-1-yl]azetidin-3-yl}acetonitrile tris(trifluoroacetate)]
IC50 ([1]; Table 4): < 10 nM
JAK2/JAK1 IC50 ratio ([2]; Table 4): ≧10

C[C@H](CO)NCc1cc(O[C@H]2CC[C@@H](N3CC(CC#N)(n4cc(-c5ncnc6[nH]ccc56)cn4)C3)CC2)nc(C(F)(F)F)c1 [Example 75, {1-(cis-4-{[4-({[(1R)-2-hydroxy-1-methylethyl]amino}methyl)-6-(trifluoromethyl)pyridin-2-yl]oxy}cyclohexyl)-3-[4-(7H-pyrrolo[2,3-d]pyrimidin-4-yl)-1H-pyrazol-1-yl]azetidin-3-yl}acetonitrile tris(trifluoroacetate)]
IC50 ([1]; Table 5): < 10 nM
JAK2/JAK1 IC50 ratio ([2]; Table 5): ≧10

N#CCC1(n2cc(-c3ncnc4[nH]ccc34)cn2)CN([C@H]2CC[C@@H](Oc3cc(CN4CCC[C@H]4CO)cc(C(F)(F)F)n3)CC2)C1.O=C(O)C(F)(F)F.O=C(O)C(F)(F)F.O=C(O)C(F)(F)F (stereo in doubt) [Example 94, {1-(cis-4-{[4-{[(2S)-2-(hydroxymethyl)pyrrolidin-1-yl]methyl}-6-(trifluoromethyl)pyridin-2-yl]oxy}cyclohexyl)-3-[4-(7H-pyrrolo[2,3-d]pyrimidin-4-yl)-1H-pyrazol-1-yl]azetidin-3-yl}acetonitrile tris(trifluoroacetate)]
IC50 ([1]; Table 5): < 10 nM
JAK2/JAK1 IC50 ratio ([2]; Table 5): ≧10

C[C@H](CO)NC(=O)c1cc(O[C@H]2CC[C@@H](N3CC(CC#N)(n4cc(-c5ncnc6[nH]ccc56)cn4)C3)CC2)nc(C(F)(F)F)c1 [Example 85, 2-[(cis-4-{3-(cyanomethyl)-3-[4-(7H-pyrrolo[2,3-d]pyrimidin-4-yl)-1H-pyrazol-1-yl]azetidin-1-yl}cyclohexyl)oxy]-N-[(1R)-2-hydroxy-1-methylethyl]-6-(trifluoromethyl)isonicotinamide bis(trifluoroacetate)]
IC50 ([1]; Table 5): < 10 nM
JAK2/JAK1 IC50 ratio ([2]; Table 5): ≧10

CC(O)c1cc(OC2CCC(N3CC(CC#N)(n4cc(-c5ncnc6[nH]ccc56)cn4)C3)CC2)nc(C(F)(F)F)n1 (single isomer, unassigned) [Example 58a, {1-(cis-4-{[6-(1-hydroxyethyl)-2-(trifluoromethyl)pyrimidin-4-yl]oxy}cyclohexyl)-3-[4-(7H-pyrrolo[2,3-d]pyrimidin-4-yl)-1H-pyrazol-1-yl]azetidin-3-yl}acetonitrile tris(trifluoroacetate) (salt)]
IC50 ([1]; Table 4): < 10 nM
JAK2/JAK1 IC50 ratio ([2]; Table 4): ≧10
